Results: US10973863B2, “Method for regulating, preventing and/or treating pulmonary injury” (SINPHAR PHARMACEUTICAL CO., LTD., priority 2017, dated 2021)

Tested on: pro-form MMP-9
Test: Western blot: pro-form MMP-9 expression in LPS-treated NR8383 cells
Assay type: cell-based, rat
Conditions: 0.01 μg/mL LPS; 6.25 to 50 μg/mL; 24 hours
Procedure: Rat alveolar macrophage NR8383 cells were divided into six groups and separately cultivated with the following media for 24 hours: • (1) Control group: a macrophage growth medium containing 0.01 μg/mL LPS; • (2) Positive control group: a macrophage growth medium containing 0.01 μg/mL LPS and 1 μM Dex; and • (3) Extract A group (including four sub-groups): a macrophage growth medium containing 0.01 μg/mL LPS and the extract A provided by [preparation example A-2-2], wherein the extract A is present in the four sub-groups at a concentration of 6.25, 12.5, 25 and 50 μg/mL respectively.
Thereafter, the proteins in the cells of each group were extracted and then subjected to a Western blot to measure the expression level of pro-form MMP-9 (i.e., the zymogen form of MMP-9), active-form MMP-9 and MMP-12. The relative expression level of pro-form MMP-9, active-form MMP-9 and MMP-12 of each group was calculated by using the results of the control group as a basis (i.e., the expression level of control group was served as 1-fold).
Rat alveolar macrophage NR8383 cells were divided into ten groups and separately cultivated with the following media for 24 hours:
(1) Control group: a macrophage growth medium containing 0.01 μg/mL LPS;
(2) Positive control group: a macrophage growth medium containing 0.01 μg/mL LPS and 1 μM Dex; […]

C=C(CC[C@@H](C(=O)O)[C@H]1[C@H](O)C[C@@]2(C)C3=CC[C@@H](C(=C)C)[C@](C)(CCC(=O)O)C3=CC[C@]12C)C(C)C [PAA, poricoic acid A]
Expression level of pro-form MMP-9 in comparison with the control group (in words): effective in inhibiting
